Here are results for twelve compounds from ChEMBL document CHEMBL1131447 (J Med Chem, 1998).

Test [1] has as its system Rattus norvegicus. In words: In vivo antipsychotic activity measured by the induction of catalepsy in rats after po administration. The class given is functional.
Test [2] has as its system Mus musculus. In words: In vivo antipsychotic activity measured by the inhibition of apomorphine-induced climbing behavior in mice after 30 min po administration. The class given is functional. The note with it: 0.5 h.
The subject of test [3] is Rattus norvegicus. In words: In vivo antipsychotic activity measured by the induction of catalepsy in rats after po administration. The test is classed as functional.
Test [4] is filed under the species Mus musculus. In words: Inhibition of p-chloroamphetamine-induced hyperactivity in mice. The test is classed as functional.
The species entered for test [5] is Mus musculus. In words: Inhibition of head twitches-induced by 2,5-dimethoxy-4-iodoamphetamine in mice. The test is classed as functional.
The species named for test [6] is Mus musculus. In words: Inhibition of grooming-induced by SKF 38393 in mice. The test is classed as functional.
For test [7], the target named is T1, 5-hydroxytryptamine receptor 2A (Rattus norvegicus, UniProt P14842).
T1 sequence (P14842 whole entry): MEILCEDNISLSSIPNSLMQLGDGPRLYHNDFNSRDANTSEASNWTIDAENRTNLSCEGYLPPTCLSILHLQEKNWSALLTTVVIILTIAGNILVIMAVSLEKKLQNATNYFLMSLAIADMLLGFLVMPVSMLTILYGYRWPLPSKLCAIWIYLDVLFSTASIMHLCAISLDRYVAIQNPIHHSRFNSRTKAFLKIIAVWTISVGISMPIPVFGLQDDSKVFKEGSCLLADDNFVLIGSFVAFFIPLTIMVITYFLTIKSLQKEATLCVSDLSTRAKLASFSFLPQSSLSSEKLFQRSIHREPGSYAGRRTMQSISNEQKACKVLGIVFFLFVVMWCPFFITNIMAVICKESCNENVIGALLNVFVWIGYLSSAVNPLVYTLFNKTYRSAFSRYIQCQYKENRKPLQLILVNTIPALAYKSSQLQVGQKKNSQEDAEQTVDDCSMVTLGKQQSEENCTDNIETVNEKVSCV
Test [8] addresses Beta-1 adrenergic receptor (Rattus norvegicus, UniProt P18090). In words: Binding affinity measured at the Beta-1 adrenergic receptor by the inhibition of [3H]DHA binding to rat cortex using unlabeled isoprenalin for nonspecific binding.
For test [9], the species on record is Rattus norvegicus. In words: Inhibition of apomorphine-induced stereotypy in rats. The test is classed as functional.
For test [10], the target named is T2, 5-hydroxytryptamine receptor 1A (Rattus norvegicus, UniProt P19327).
T2 sequence (P19327 whole entry): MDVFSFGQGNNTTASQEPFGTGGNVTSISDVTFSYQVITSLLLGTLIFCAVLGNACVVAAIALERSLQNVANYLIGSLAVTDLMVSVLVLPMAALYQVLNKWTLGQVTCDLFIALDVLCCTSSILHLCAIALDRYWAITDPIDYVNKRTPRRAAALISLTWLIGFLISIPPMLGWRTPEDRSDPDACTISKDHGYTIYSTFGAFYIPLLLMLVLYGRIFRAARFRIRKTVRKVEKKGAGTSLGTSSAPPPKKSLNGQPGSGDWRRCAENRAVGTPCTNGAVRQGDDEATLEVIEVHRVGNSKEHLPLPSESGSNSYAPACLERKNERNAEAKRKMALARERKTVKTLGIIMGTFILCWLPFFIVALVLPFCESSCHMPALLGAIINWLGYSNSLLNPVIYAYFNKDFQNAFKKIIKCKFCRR
In words: Binding affinity measured at the 5-hydroxytryptamine 1A receptor by the inhibition of [3H]8-OH-DPAT binding to rat cortex using unlabeled buspirone for nonspecific binding.

Test [11] deals with T3, Adrenergic receptor alpha-2 (Rattus norvegicus, UniProt P22086+P19328+P22909).
T3 sequence (P22086 whole entry): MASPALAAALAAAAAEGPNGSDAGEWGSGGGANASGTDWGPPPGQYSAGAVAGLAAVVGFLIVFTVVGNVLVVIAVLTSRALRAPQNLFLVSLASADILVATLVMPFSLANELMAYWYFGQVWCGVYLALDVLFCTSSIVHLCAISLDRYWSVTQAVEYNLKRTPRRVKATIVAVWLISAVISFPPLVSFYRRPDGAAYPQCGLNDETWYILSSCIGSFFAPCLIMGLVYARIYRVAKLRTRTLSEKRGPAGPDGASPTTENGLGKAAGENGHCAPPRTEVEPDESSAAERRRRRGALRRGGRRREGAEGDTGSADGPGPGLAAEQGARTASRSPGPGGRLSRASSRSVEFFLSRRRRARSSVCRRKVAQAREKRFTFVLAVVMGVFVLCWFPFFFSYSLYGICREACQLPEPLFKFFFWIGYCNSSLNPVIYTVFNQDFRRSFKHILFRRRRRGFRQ
T3 sequence (P19328 whole entry): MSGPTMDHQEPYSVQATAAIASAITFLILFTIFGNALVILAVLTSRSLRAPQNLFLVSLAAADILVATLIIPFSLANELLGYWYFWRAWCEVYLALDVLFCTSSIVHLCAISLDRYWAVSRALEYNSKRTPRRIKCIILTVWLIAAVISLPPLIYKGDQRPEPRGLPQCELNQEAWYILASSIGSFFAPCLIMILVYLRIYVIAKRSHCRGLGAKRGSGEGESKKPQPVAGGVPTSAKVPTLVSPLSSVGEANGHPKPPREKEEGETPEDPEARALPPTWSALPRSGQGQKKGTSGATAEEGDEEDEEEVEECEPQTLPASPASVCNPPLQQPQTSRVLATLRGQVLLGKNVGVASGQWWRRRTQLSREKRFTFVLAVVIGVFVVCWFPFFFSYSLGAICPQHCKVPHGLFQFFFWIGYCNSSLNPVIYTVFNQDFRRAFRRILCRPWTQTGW
T3 sequence (P22909 whole entry): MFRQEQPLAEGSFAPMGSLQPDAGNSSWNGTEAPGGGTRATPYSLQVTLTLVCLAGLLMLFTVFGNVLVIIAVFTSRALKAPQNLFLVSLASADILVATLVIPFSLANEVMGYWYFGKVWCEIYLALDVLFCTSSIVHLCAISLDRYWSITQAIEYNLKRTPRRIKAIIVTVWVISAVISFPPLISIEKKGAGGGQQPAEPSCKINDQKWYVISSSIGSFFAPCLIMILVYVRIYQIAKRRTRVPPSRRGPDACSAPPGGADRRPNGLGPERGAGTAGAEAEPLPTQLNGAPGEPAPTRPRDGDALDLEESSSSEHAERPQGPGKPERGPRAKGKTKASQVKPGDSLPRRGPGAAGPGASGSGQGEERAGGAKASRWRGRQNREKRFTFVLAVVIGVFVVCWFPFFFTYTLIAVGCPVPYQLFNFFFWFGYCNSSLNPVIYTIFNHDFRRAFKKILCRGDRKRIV
In words: Binding affinity measured at the Alpha-2 adrenergic receptor by the inhibition of [3H]clonidine binding to rat cortex using unlabeled NAbitartrate for nonspecific binding.

Test [12] deals with T1, 5-hydroxytryptamine receptor 2A. The source holds these as a separate data set.
Description: Binding affinity measured at the 5-hydroxytryptamine 2A receptor by the inhibition of [3H]ketanserin binding to rat cortex using unlabeled mianserin for nonspecific binding.
For test [13], the target named is D(1A) dopamine receptor (Rattus norvegicus, UniProt P18901). In words: biochemical.
D(1A) dopamine receptor, sequence (P18901 whole entry): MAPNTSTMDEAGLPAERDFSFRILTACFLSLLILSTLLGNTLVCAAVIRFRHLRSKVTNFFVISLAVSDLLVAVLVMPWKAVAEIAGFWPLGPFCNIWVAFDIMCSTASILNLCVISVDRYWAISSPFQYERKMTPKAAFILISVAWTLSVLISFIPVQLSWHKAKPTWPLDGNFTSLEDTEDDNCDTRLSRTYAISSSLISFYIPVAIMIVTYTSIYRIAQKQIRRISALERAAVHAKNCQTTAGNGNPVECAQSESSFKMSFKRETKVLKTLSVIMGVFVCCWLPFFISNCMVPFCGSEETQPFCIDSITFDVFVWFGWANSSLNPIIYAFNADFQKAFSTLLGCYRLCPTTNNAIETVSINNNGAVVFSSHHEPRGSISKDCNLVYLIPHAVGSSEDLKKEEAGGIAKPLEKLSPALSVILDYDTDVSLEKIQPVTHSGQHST
Description: Binding affinity measured at the Dopamine receptor D1 by the inhibition of [3H]SCH-23390 binding to rat striatum using unlabeled apomorphine for nonspecific binding.
Test [14] deals with T4, Alpha-1A adrenergic receptor (Rattus norvegicus, UniProt P43140).
T4 sequence (P43140 whole entry): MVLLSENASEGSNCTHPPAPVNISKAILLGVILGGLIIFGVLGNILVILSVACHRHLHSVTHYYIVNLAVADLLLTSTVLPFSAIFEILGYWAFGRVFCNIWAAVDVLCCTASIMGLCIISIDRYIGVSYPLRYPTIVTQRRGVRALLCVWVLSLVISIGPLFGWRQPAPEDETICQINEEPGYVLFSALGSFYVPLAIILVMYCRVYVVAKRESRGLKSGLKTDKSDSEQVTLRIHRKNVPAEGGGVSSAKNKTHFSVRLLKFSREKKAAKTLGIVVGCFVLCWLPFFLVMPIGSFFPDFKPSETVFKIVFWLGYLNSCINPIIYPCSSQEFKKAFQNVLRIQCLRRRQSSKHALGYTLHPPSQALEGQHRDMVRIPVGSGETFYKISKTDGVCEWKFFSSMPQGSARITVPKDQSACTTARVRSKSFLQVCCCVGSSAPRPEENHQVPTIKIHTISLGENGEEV
Description: Binding affinity measured at the Alpha-1A adrenergic receptor by the inhibition of [3H]prazosin binding to rat cortex using unlabeled WB-4101 for nonspecific binding.

Test [15] addresses Muscarinic acetylcholine receptor. In words: Binding affinity measured at the Muscarinic acetylcholine receptor by the inhibition of [3H]-pyrilamine binding to guinea pig cerebellum using unlabeled Triprolidine for nonspecific binding. The test is classed as tissue-based, Cavia porcellus.
The target of test [16] is T5, D(4) dopamine receptor (Homo sapiens, UniProt P21917).
T5 sequence (P21917 whole entry): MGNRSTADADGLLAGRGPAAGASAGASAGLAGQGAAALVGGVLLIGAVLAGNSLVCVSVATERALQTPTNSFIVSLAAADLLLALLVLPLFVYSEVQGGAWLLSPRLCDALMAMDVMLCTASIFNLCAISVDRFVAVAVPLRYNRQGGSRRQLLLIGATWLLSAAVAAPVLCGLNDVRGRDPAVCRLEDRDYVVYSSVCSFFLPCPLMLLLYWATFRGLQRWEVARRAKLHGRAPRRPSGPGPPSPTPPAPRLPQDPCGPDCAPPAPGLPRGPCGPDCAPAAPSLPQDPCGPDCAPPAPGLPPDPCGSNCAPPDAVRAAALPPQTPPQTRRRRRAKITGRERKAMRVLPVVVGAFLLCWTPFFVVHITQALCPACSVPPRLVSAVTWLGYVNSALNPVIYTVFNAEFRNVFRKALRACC
In words: biochemical.

For test [17], the target named is Adrenergic receptor beta (Rattus norvegicus, UniProt P18090+P10608+P26255). In words: Binding affinity measured at the Beta adrenergic receptor by the inhibition of [3H]DHA binding to rat cortex using unlabeled isoprenalin for nonspecific binding.
Test [18] deals with D(3) dopamine receptor (Homo sapiens, UniProt P35462). In words: Binding affinity measured at the Dopamine receptor D3 by the inhibition of [3H]YM-09151-2 binding to human recombinant CCL 1.3 cells using unlabeled 7-OH-DPAT for nonspecific binding.
D(3) dopamine receptor, sequence (P35462 whole entry): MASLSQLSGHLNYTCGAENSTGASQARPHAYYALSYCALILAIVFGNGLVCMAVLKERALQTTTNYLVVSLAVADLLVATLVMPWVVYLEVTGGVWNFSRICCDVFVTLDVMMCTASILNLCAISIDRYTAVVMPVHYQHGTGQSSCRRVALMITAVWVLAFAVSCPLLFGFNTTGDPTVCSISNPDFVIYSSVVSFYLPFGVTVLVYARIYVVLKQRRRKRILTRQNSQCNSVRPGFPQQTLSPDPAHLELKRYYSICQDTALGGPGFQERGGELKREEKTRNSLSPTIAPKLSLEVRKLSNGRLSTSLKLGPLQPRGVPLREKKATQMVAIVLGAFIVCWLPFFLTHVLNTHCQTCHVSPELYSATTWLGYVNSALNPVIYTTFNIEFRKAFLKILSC

Beta-1 adrenergic receptor, sequence (P18090 whole entry): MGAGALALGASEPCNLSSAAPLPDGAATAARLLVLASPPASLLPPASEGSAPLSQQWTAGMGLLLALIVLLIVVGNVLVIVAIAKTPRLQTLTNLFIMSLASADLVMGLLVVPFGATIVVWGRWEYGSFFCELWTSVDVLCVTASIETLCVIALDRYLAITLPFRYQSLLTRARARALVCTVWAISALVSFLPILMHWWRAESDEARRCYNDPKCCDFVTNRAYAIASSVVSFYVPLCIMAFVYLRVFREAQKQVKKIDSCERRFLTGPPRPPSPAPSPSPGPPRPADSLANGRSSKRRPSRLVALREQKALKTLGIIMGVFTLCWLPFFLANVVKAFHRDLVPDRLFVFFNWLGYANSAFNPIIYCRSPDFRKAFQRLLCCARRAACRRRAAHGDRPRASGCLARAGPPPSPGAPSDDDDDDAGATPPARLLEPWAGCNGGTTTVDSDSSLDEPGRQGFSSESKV

A word on the ED50: it is the dose that gives a 50% effect, or the effect in half of the subjects. With `O=Cc1coc2cc(OCCCN3CCC(c4noc5cc(F)ccc45)CC3)ccc2c1=O`, the ED50 in test [1] was found to be 15.9 mg/kg; in test [2], 3.32 mg/kg.

Consider `O=C(CCCN1CCC(O)(c2ccc(Cl)cc2)CC1)c1ccc(F)cc1` [HALOPERIDOL], for which the ED50 in [3] was 2 mg/kg; in test [2], 0.31 mg/kg; in [4], 0.3 mg/kg; in test [5] it was 0.56 mg/kg; in test [6], 0.28 mg/kg.

For orientation: IC50 means the concentration that inhibits the measured activity by half. Lower therefore signals higher potency. Consider `O=c1ccoc2cc(OCCCN3CCC(c4noc5cc(F)ccc45)CC3)ccc12`, for which, in test [7], half-maximal inhibition (IC50) was put at 8.6 nM. The ED50 in test [3] is 12.6 mg/kg; in [2], 1.08 mg/kg.

Broadly, the Ki is the equilibrium dissociation constant of an inhibitor or competing ligand from its target. For `Cc1nc2n(c(=O)c1CCN1CCC(c3noc4cc(F)ccc34)CC1)CCCC2` [RISPERIDONE], the ED50 came out at 5 mg/kg in test [3]; 0.29 mg/kg in test [2]; 9.7 mg/kg in [9]; 0.2 mg/kg in test [4]; 0.41 mg/kg in test [6]. For the same compound, affinity in test [8] was put at a Ki of 22000 nM.

As for `O=C(O)c1coc2cc(OCCCN3CCC(c4noc5cc(F)ccc45)CC3)ccc2c1=O`, the results for the ED50 in test [3] and in test [2] were over 50 mg/kg and over 10 mg/kg, respectively.

As to `Cc1coc2cc(OCCCN3CCC(c4noc5cc(F)ccc45)CC3)ccc2c1=O`, the results for the ED50 in test [3] and in test [2] were 2.85 mg/kg and 0.4 mg/kg, respectively.

The compound `O=C(c1ccc(F)cc1)C1CCN(CCCOc2ccc3c(=O)c(CO)coc3c2)CC1` returned an IC50 in test [7] of 32.9 nM. Moreover, the ED50 in test [3] was 13 mg/kg; in [2] it was 2.02 mg/kg.

In test [7], `COCc1coc2cc(OCCCN3CCC(c4noc5cc(F)ccc45)CC3)ccc2c1=O` registered an IC50 of 1.4 nM. Moreover, the figures for the ED50 in [3] and in [2] were 6.88 mg/kg and 0.27 mg/kg, respectively.

On to `O=c1cc(CO)oc2cc(OCCCN3CCC(c4noc5cc(F)ccc45)CC3)ccc12`, for which it took 7.2 nM to reach half-maximal inhibition in test [7] (IC50). The ED50 is over 100 mg/kg in [3] and 5.88 mg/kg in test [2].

The compound `O=c1c(CO)coc2cc(OCCCN3CCC(c4noc5cc(F)ccc45)CC3)ccc12` [ABAPERIDONE] gave a concentration for half-maximal inhibition (IC50) in test [7] of 6.2 nM. Moreover, the ED50 in test [3] came out at 8.48 mg/kg; in test [2], 0.24 mg/kg; in test [9], 18.6 mg/kg; in test [4] it was 0.16 mg/kg; in test [5], 0.08 mg/kg; in [6] it was 0.31 mg/kg. In addition, the inhibitory constant (Ki) in [10] is 94 nM; in [11], 169 nM; in [12] it was 1.9 nM; in [13] it was 239 nM; in test [14], 2.4 nM; in [15] it was 1130 nM. For the same compound, the figures for the Ki in test [16], in test [17] and in test [18] were 179 nM, 2990 nM and 5.4 nM, respectively.

For `Cc1coc2cc(OCCCN3CCC(C(=O)c4ccc(F)cc4)CC3)ccc2c1=O`, the IC50 in test [7] was determined as 25.3 nM.

On to `CN1CCN(C2=Nc3cc(Cl)ccc3Nc3ccccc32)CC1` [CLOZAPINE], for which the ED50 in test [3] is over 100 mg/kg; in test [2] it was 15.4 mg/kg; in test [9], over 100 mg/kg; in [4], 6.41 mg/kg; in test [5], 0.85 mg/kg; in test [6] it was 0.33 mg/kg.
